Measurements published in the NIST ThermoML archive (doi:10.1021/acs.jced.8b00135).

Tests used:
[1] = 96.5 kPa, Liquid, Capillary tube (Ostwald / Ubbelohde) method
[2] = refractive index (Na D-line) (dimensionless); details: 96.5 kPa, Liquid, Standard Abbe refractometry

Cc1ccccc1O [2-methylphenol]
Details | refractive index, 288.15 K | refractive index, 293.15 K | refractive index, 298.15 K | refractive index, 303.15 K | refractive index, 308.15 K | viscosity, 288.15 K [mPa·s] | viscosity, 293.15 K [mPa·s] | viscosity, 298.15 K [mPa·s] | viscosity, 303.15 K [mPa·s] | viscosity, 308.15 K [mPa·s]
[1] | – | – | – | – | – | 13.28 | 9.68 | 7.76 | 6.575 | 5.566
[2] | 1.5407 | 1.5392 | 1.5382 | 1.5362 | 1.5336 | – | – | – | – | –
